For one assay, the system named is Isolated Rat Bladder Strips. The experiment in a line: Inhibition of contractions in isolated rat bladder strips (KCl-enhanced contractile activity; smooth muscle relaxation). The assay is classed as cell-based, Sprague-Dawley rats. Particulars: 0.5 h; isolated rat bladder strips, 15 mM additional KCl, 30 minute challenge; read-out: IC50 (50% inhibition of pre-drug contractile activity). From the text:
The smooth muscle relaxing activity of the compounds of this invention was established in accordance with standard pharmaceutically accepted test procedures with representative compounds as follows:
Sprague-Dawley rats (150-200 g) are rendered unconscious by CO2 asphyxiation and then euthanized by cervical dislocation. The bladder is removed into warm (37 deg.C) physiological salt solution (PSS) of the following composition (mM): NaCl, 118.4; KCl, 4.7; CaCl2, 2.5; MgSO4, 4.7; H2 O, 1,2; NaHCO3, 24.9; KH2 PO4, 1,2; glucose, 11.1; EDTA, 0.023; gassed with […]; pH 7.4. The bladder is opened and then dut into strips 1-2 mm in width and 7-10 mm in length. The strips are subsequently suspended in a 10 mL tissue bath under an initial resting tension of 1.5 g. The strips are held in place by two surgical clips one of which is attached to a fixed hook while the other is attached to an isometric force transducer. […] The carbachol is then washed out and the tissue allowed to relax to its resting level of activity. Following a further 30 min period of recovery an additional 15 mM KCl are introduced into the tissue bath. This increase in KCl concentration results in a large increase in the amplitude of spontaneous contractions (and initiation of contractions in previously quiescent strips) superimposed upon a small increase in basal tone. Following stabilization of this enhanced level of contractile activity, incremental increases in the concentration of test compound or vehicle are introduced into the tissue bath. Contractile activity is measured for each compound or vehicle concentration during the last minute of a 30 minute challenge.
The isometric force developed by the bladder strips is measured using a […] to elicit 50% inhibition of pre-drug contractile activity (IC50 concentration) and is calculated from this concentration-response curve.
Consider `CCc1cc(C#N)ccc1CNc1c(NC(C)(C)C)c(=O)c1=O` [Example 27, 4-[(2-tert-Butylamino-3,4-dioxo-cyclobut-1-enylamino)-methyl]-3-ethyl-benzonitrile], for which the IC50 turned out to be 240 ± 30 nM.
On the same count and under the same terms, the value for `C[C@@H](Nc1c(NCc2ccc(C#N)cc2Cl)c(=O)c1=O)C(C)(C)C` [Example 30, (R)-3-Chloro-4-{[3,4-dioxo-2-(1,2,2-trimethyl-propylamino)-cyclobut-1-enylamino]-methyl}-benzonitrile] was 180 ± 30 nM.
On to `C[C@@H](Nc1c(NCc2ccc(F)cc2C(F)(F)F)c(=O)c1=O)C(C)(C)C` [Example 61, 3-(4-Fluoro-2-trifluoromethyl-benzylamino)-4-(1,2,2-trimethyl-propylamino)-cyclobut-3-ene-1,2-dione], for which the IC50 amounted to 1700 ± 1000 nM.
As for `COc1cc(CNc2c(NC(C)(C)C)c(=O)c2=O)cc(OC)c1` [Example 22, 3-tert-butylamino-4-(3,5-dimethoxy-benzylamino)-cyclobut-3-ene-1,2-dione], the IC50 came to 25000 ± 10000 nM.
The same measure, in the same setting: the value for `Cc1cc(C#N)cc(CNc2c(NC(C)(C)C)c(=O)c2=O)c1` [Example 16, 3-[(2-tert-Butylamino-3,4-dioxo-cyclobut-1-enylamino)-methyl]-5-methyl-benzonitrile] was 2900 ± 100 nM; that for `COc1cc(OC)c(CNc2c(NC(C)(C)C)c(=O)c2=O)c(OC)c1` [Example 15, 3-tert-Butylamino-4-(2,4,6-trimethoxy-benzylamino)-cyclobut-3-ene-1,2-dione] was 11100 ± 400 nM.
The same measure, in the same setting: the value for `CCC(C)(C)Nc1c(NCc2c(C)cc(C#N)cc2Cl)c(=O)c1=O` [Example 33, 3-Chloro-4-{[2-(1,1-dimethyl-propylamino)-3,4-dioxo-cyclobut-1-enylamino]-methyl}-5-methyl-benzonitrile] was 160 ± 10 nM; that for `CCc1cc(Br)ccc1CNc1c(NC(C)(C)C)c(=O)c1=O` [Example 48, 3-(4-Bromo-2-ethyl-benzylamino)-4-tert-butylamino-cyclobut-3-ene-1,2-dione] was 270 ± 80 nM.
`Cc1cc(C)c(CNc2c(NC(C)(C)C)c(=O)c2=O)c(Cl)c1` [Example 39, 3-tert-Butylamino-4-(2-chloro-4,6-dimethyl-benzylamino)-cyclobut-3-ene-1,2-dione]: the half-maximal inhibitory concentration (IC50) was 710 ± 500 nM.
As to `Cc1c(Cl)cccc1CNc1c(NC(C)(C)C)c(=O)c1=O` [Example 96, 3-tert-Butylamino-4-(3-chloro-2-methyl-benzylamino)-cyclobut-3-ene-1,2-dione], the IC50 amounted to 1300 ± 300 nM.
In the case of `CC(C)(C)Nc1c(NCc2cc(F)ccc2F)c(=O)c1=O` [Example 21, 3-tert-Butylamino-4-(2,5-difluoro-benzylamino)-cyclobut-3-ene-1,2-dione], the IC50 came to 3900 ± 1100 nM.
Consider `C[C@@H](Nc1c(NCc2cc(F)ccc2Cl)c(=O)c1=O)C(C)(C)C` [Example 65, 3-(2-Chloro-5-fluoro-benzylamino)-4-(1,2,2-trimethyl-propylamino)-cyclobut-3-ene-1,2-dione], for which the IC50 was 850 ± 410 nM.
On the same count and under the same terms, the value for `CCC(C)(C)Nc1c(NCc2c(C)cccc2Cl)c(=O)c1=O` [Example 32, 3-(2-chloro-6-methyl-benzylamino)-4-(1,1-dimethyl-propylamino)-cyclobut-3-ene-1,2-dione] was 4350 ± 4100 nM; that for `CCC(C)(C)Nc1c(NCc2cc(F)cc(F)c2)c(=O)c1=O` [Example 74, 3-(3,5-Difluoro-benzylamino)-4-(1,1-dimethyl-propylamino)-cyclobut-3-ene-1,2-dione] was 750 ± 450 nM.
Still for that read-out and setting: the value for `CCc1cc(C#N)ccc1CNc1c(NC(C)(C)CC)c(=O)c1=O` [Example 50, 4-[(1,1-Dimethyl-propylamino-3,4-dioxo-cyclobut-1-enylamino)-methyl]-3-ethyl-benzonitrile] was 105 ± 5 nM; that for `C[C@@H](Nc1c(NCc2ccc(F)c(Cl)c2)c(=O)c1=O)C(C)(C)C` [Example 69, 3-(3-Chloro-4-fluoro-benzylamino)-4-(1,2,2-trimethyl-propylamino)-cyclobut-3-ene-1,2-dione] was 5400 ± 2100 nM.
With `Cc1cccc(C)c1CNc1c(NC(C)(C)C)c(=O)c1=O` [Example 52, 3-tert-Butylamino-4-(2,6-dimethyl-benzylamino)-cyclobut-3-ene-1,2-dione], the IC50 was 5900 ± 1800 nM.
Still for that read-out and setting: the value for `Cc1cc(Br)cc(C)c1CNc1c(N[C@H](C)C(C)(C)C)c(=O)c1=O` [Example 35, 3-(4-Bromo-2,6-dimethyl-benzylamino)-4-(1,2,2-trimethyl-propylamino)-cyclobut-3-ene-1,2-dione] was 8900 ± 3000 nM; that for `CCc1cc(C#N)ccc1CNc1c(N[C@H](C)C(C)(C)C)c(=O)c1=O` [Example 28, 4-{[3,4-Dioxo-2-(1,2,2-trimethyl-propylamino)-cyclobut-1-enylamino]-methyl}-3-ethyl-benzonitrile] was 2000 ± 200 nM; that for `CCc1cc(CNc2c(NC(C)(C)C)c(=O)c2=O)ccc1C#N` [Example 46, 4-[(2-tert-Butylamino-3,4-dioxo-cyclobut-1-enylamino)-methyl]-2-ethyl-benzonitrile] was 6100 ± 3800 nM.
On the same count and under the same terms, the value for `C[C@@H](Nc1c(NCc2cc(F)ccc2F)c(=O)c1=O)C(C)(C)C` [Example 66, 3-(2.5-Difluoro-benzylamino)-4-(1,2,2-trimethyl-propylamino)-cyclobut-3-ene-1,2-dione] was 980 ± 400 nM; that for `CC(C)(C)Nc1c(NCc2cc(Cl)cc(Cl)c2)c(=O)c1=O` [Example 89, 3-tert-Butylamino-4-(3.5-dichloro-benzylamino)-cyclobut-3-ene-1,2-dione] was 2300 ± 850 nM; that for `CCC(C)(C)Nc1c(NCc2cc(Cl)cc(Cl)c2)c(=O)c1=O` [Example 88, 3-(3,5-Dichloro-benzylamino)-4-(1,1-dimethyl-propylamino)-cyclobut-3-ene-1,2-dione] was 7300 ± 6000 nM.
On to `CCC(C)(C)Nc1c(NCc2ccc(F)c(F)c2)c(=O)c1=O` [Example 70, 3-(3,4-Difluoro-benzylamino)-4-(1,1-dimethyl-propylamino)-cyclobut-3-ene-1,2-dione], for which the half-maximal inhibitory concentration (IC50) was 1600 ± 770 nM.

The same assay, now with this note: Rattus norvegicus; read-out: Percent inhibition at 30 μM (I).
On to `C[C@@H](Nc1c(NCc2ccc(C#N)cc2Cl)c(=O)c1=O)C(C)(C)C` [Example 30, (R)-3-Chloro-4-{[3,4-dioxo-2-(1,2,2-trimethyl-propylamino)-cyclobut-1-enylamino]-methyl}-benzonitrile], for which the inhibition at 30 µM stood at 23%.
For `CCC(C)(C)Nc1c(NCc2ccc(C)c(C)c2)c(=O)c1=O` [Example 85, 3-(3A-Dimethyl-benzylamino)-4-(1,1-dimethyl-propylamino)-cyclobut-3-ene-1,2-dione], the inhibition at 30 µM was determined as 35.1 ± 4.4%.
Turning to `Cc1cc(C)c(CNc2c(NCC(F)(F)C(F)(F)F)c(=O)c2=O)c(Cl)c1` [Example 41, 3-(2-Chloro-4,6-dimethyl-benzylamino)-4-(2,2,3,3,3-pentafluoro-propylamino)-cyclobut-3-ene-1,2-dione], the inhibition at 30 µM stood at 41 ± 2.9%.

The subject of another assay is hypertrophied bladder (detrussor) smooth muscle. The experiment in a line: Inhibition of spontaneous contractions in vivo (conscious female rats with hypertrophied bladders, cystometry). The settings on record: 3 mg/kg p.o.; hypertrophied rat bladder model. Also on record: species or system Female Sprague-Dawley rats. From the text:
In addition, we tested the ability of compounds to inhibit the hyperactivity of hypertrophied bladder (detrussor) smooth muscle in conscious female rats with hypertrophied bladders and thereby alleviate urinary incontinence in rats according to the following protocol described by Malmgren (A. Malmgren, K. E. Andersson, C. Sjogren, P. O. Andersson, Effects of pinacidil and Cromakalim (BRL 34915) on Bladder Function in Rats with Detrusor Instability, J. Urol. 142: 1134, 1989.):
Female Sprague-Dawley rats, ranging in weight from 190-210 g are used. Up to 25 animals are prepared each time. After developemnt of bladder hypertrophy 4-8 animals are used per test.
Compounds are dissolved in PEG-200 and administered by gastric gavage or intraveneously in a volume of 5 ml/kg. For primary screening all drugs are administered at the arbitrary dose of 10 mg/kg p.o. to groups of 4 rats.
The animals are anesthetized with halothane. Through a midline incision the bladder and urethra are exposed and a ligature of 4-0 silk is tied around the proximal urethra in the presence of a stainless steel rod (1 mm diameter) to produce a partial occlusion. The rod is then removed. The abdominal region is closed using surgical staples and each rat receives 150,000 units of bicillin C-R. The animals ar allowed six weeks to develop sufficient bladder hypertrophy. After six weeks, the ligature is removed under halothane anesthesia and a catheter (PE 60) with a cuff is placed in the dome of the bladder and secured with a purse string suture. The catheter is tunneled under the skin and exteriorized through an opening in the back of the neck. The abdominal incision is sutured and the free end of the catheter sealed. In order to prevent infections the rats receive an injection of bicillin C-R (150000 units/rat). Two days later the animals are used in cystometrical evaluations, The animals are placed in the metabolic cages and the catheter is attached (using a "T" connector) to a Statham pressure transducer (Model P23Db) and to a Harvard infusion pump. A plastic beaker attached to a force displacement transducer (Grass FTO3) is placed under the rat's cage to collect and record urine volume. Animals are allowed 15-30 min t rest before the saline infusion (20 ml/hr for 20 minutes) is started for the first cystometry period. Two hours after the first cystometry period, the rats are dosed with the vehicle or the test compound and one hour later a second cystometry is performed.
The following urodynamic variables are recorded:
Basal bladder pressure=the lowest bladder pressure during cystometry
Threshold pressure=bladder pressure immediately prior to micturition
Micturition volume=volume expelled
Micturition pressure=peak pressure during voiding
Spontaneous activity=mean amplitude of bladder pressure fluctuations during filling
Presentation of results: The mean value of each variable is calculated before and after compound administration. For each compound the changes in the variables measured are compared to the values obtained before treatment and expressed as percent inhibition. The data are also subjected to 2-way analysis of variance to determine significant (p<0.05) changes in the variable measured.
Criteria for Activity: The most characteristic finding in this rat model is spontaneous bladder contractions which develop during filling. The compounds which inhibit spontaneous contractions by at least 50% at 10 mg/kg p.o. or i.v. (arbitrary chosen dose) are considered active.
As to `C[C@@H](Nc1c(NCc2ccc(C#N)cc2Cl)c(=O)c1=O)C(C)(C)C` [Example 30, (R)-3-Chloro-4-{[3,4-dioxo-2-(1,2,2-trimethyl-propylamino)-cyclobut-1-enylamino]-methyl}-benzonitrile], the “% Red (F): percent reduction in the total number of spontaneous contractions” value is -68 ± 10%.

The same assay, now with this note: 10 mg/kg p.o.; hypertrophied rat bladder model.
Turning to `CCc1cc(C#N)ccc1CNc1c(NC(C)(C)C)c(=O)c1=O` [Example 27, 4-[(2-tert-Butylamino-3,4-dioxo-cyclobut-1-enylamino)-methyl]-3-ethyl-benzonitrile], the “% Red (F): percent reduction in the total number of spontaneous contractions” value is recorded as -20 ± 22%.

As a reminder, the IC50 is the concentration that inhibits the measured activity by half. For orientation: inhibition means the share of the control response that was lost under treatment.

(Values after patent US5780505A, “Substituted N-arylmethylamino derivatives of cyclobutene-3, 4-diones” (American Home Products Corporation, priority 1997, dated 1998).)
